From patent EP0591583B1, “Benzo (f) quinolinones as 5-alpha-reductase inhibitors” (ELI LILLY AND COMPANY, priority 1992, dated 1994) come the findings set out here.

Read-outs that look alike come from different tables or passages of the source.

This test deals with T1, 5α-reductase (Homo sapiens, UniProt P18405).
T1 construct: host or cells: Hs68 human genital skin fibroblasts
T1 sequence (P18405 1-259): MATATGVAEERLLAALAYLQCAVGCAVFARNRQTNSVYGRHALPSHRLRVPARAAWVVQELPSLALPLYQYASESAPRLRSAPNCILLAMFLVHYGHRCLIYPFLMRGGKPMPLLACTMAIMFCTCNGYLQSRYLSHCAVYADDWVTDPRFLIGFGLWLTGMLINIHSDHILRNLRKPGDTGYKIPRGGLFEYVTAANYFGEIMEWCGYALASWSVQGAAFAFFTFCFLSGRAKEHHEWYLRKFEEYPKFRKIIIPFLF
As to the kind of experiment: 5α-Reductase activity in Hs68 human genital skin fibroblasts (conversion of labeled testosterone, TLC analysis). It counts as cell-based. The following applies: Hs68, test compound 0.316 µM, Hs68 cells, substrate testosterone 12 µM, incubated four hours. As to the method:
Cell Culture: 5α-Reductase activity was measured using Hs68 human genital skin fibroblasts which were originally purchased from the American Type Culture Collection (Rockville, MD). The cells were grown in Dulbecco's Modified Eagle's Medium (DMEM) plus 10% stripped fetal bovine serum which was supplemented with amphotericin B ([…]) and gentamicin ([…]) (GIBCO, Grand Island, NY). The serum was stripped of endogenous steroids by incubation with dextran-coated charcoal prior to its addition to the media. The cells were maintained at 37°C in an atmosphere of 95% air, 5% CO2 and were passaged every 7-10 days by exposure to a trypsin-EDTA solution (0.025% trypsin, 0.265 mM EDTA). Prior to the assay the Hs68 cells were harvested and plated in Falcon 6-well plates (Becton Dickinson Labware, Lincoln Park, NJ) at a density of 6 x 10^4 cells per well. The cells were allowed to grow for 4-5 days or until they reached approximately 80% confluence.
Assay Method I: The substrate was prepared by dissolving unlabeled testosterone (Sigma Chemical Co., St. Louis, MO) in absolute ethanol followed by the addition of [7-^3H (N)]-testosterone (23.3 Ci/mmole, New England Nuclear, Boston, MA). The steroid solution was taken to dryness under a stream of nitrogen and then reconstituted in media.
Assay Method II: The substrate used for this method was [^14C]-testosterone (50 mCi/mmol) (New England Nuclear, Boston, MA). An aliquot of the substrate was taken to dryness under a stream of nitrogen. After the addition of 30 µl of ethanol, the testosterone was dissolved in an appropriate volume of media.
Sample Preparation: The test compounds were brought up in absolute ethanol in order to achieve the desired concentration. Subsequent dilutions of the test compounds with media were performed by the Biomek 1000 Automated Laboratory Workstation (Beckman Instruments, Palo Alto, CA). The existing media in the sample wells was aspirated and replaced with fresh media. Test compound was then added to the wells followed by the addition of 0.5 ml of substrate. The volume of the incubation mixture was maintained at 2.0 ml. The final substrate concentration was 12 µM. The concentration of the test compounds ranged from 0.001-150 µM. An additional three wells (background) containing media and substrate but no cells were also included to account for the non-enzymatic metabolism of the substrate. The plates were returned to the incubator and incubated for four hours.
At the end of the incubation the media was collected and transferred to an extraction tube containing 5 ml of toluene-ethanol (9:1), to which has been added 20-250 µg each of unlabeled carrier steroids (estriol, estradiol, estrone, 5α-androstan-3α,17β-diol, 5α-androstan-3β,17β-diol, 4-androstene-3,17-dione, 5α-androstan-3,17-dione, testosterone, and 5α-dihydrotestosterone) (Steraloids, Inc., Wilton, NH). In the case of Assay Method I the extraction tube also contained 1,000 and 10,000 dpm of [4-^14C]-dihydrotestosterone (50-60 mCi/mmol) and [4-^14C]-testosterone (50 mCi/mmol) (New England Nuclear, Boston, MA), respectively. The [^14C]-steroids were included as recovery standards to quantify procedural losses. A small amount of NaCl was also added to the extraction tubes to prevent foaming. The samples were vortexed for approximately 30 seconds and then centrifuged for 10 minutes at 500 x g. The organic phase was collected and the samples taken to dryness, redissolved in dichloromethane-methanol (9:1) and were analyzed by thin layer chromatography using one of the methods described below.
Chromatography Method I (two-dimensional): The extracted samples were appled to silica gel 60F254, 0.25 mm thick, thin layer chromatography plates (EM Science, Cincinnati, OH). The plates were developed in the first dimension with a solvent system containing dichloromethane-ethyl acetate-methanol-acetic acid (160:38:1.5:0.5, Mallinckrodt Inc., Paris, KY).

The term inhibition denotes how much of the control response was suppressed. For the molecule `CN1C(=O)CCC2c3ccc(C=CC(=O)O)cc3CCC21` (racemic) [Example 24, trans-dl-8-carboxyethenediyl-4-methyl-1,2,3,4,4a,5,6,10b-octahydrobenzo[f]quinolin-3-one], where the note is “read-out: % Inhibition”, the inhibition at 0.316 µM worked out at 4.96%. `CN1C(=O)CC[C@@H]2c3ccc(Cl)cc3CC[C@H]21` [Example 64, (-)-(4aR)-(10bR)-8-chloro-4-methyl-1,2,3,4,4a,5,6, lOb-octahydrobenzo[f]quinolin-3-one] showed an inhibition at 0.316 µM of 91.5%.
